This is an account of results in patent US20230159527A1, “COMPOUNDS AS BCL-2 INHIBITORS” (Fochon Pharmaceuticals, Ltd., priority 2020, published 2023).

Common to all, as to format: cell-based
Test [1] has as its system Toledo cells. The test can be described thus: Cell proliferation assay, Toledo cells (MTS, 72 h). Particulars: Homo sapiens, Toledo cells, MTS, read-out: Toledo IC50. A digest of the protocol:
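IC50 was derived from 490 nm absorbance after a 2 h MTS step. Before that, compounds at 1.5–10000 nM final (nine points) acted on Toledo cells for 72 h at 37 °C, 5% CO2. Cells were seeded at 30000/well in 10% FBS RPMI-1640 and rested 4 h before dosing.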

Test [2] concerns RS4;11-BCL-2 G101V cells. Nature of the test: Cell proliferation assay, engineered RS4;11 cells stably overexpressing BCL-2 G101V (MTS, 168 h). Particulars: Homo sapiens, RS4-11, 168 h, read-out: RS4, 11 BCL2- G101V. How it is done:
(§1) MTS testing kit was purchased from Promega (Madison, Wis., USA). The RPMI-1640, Fetal bovine serum and Penicillin-Streptomycin were purchased from BI (Biological Industries, Beit Haemek, Israel). Puromycin was purchased from Beyotime (shanghai, China). Dimethyl sulfoxide (DMSO) was purchased from Sigma (St. Louis, Mo., USA). RS4;1l-BCL-2 G101V and RS4;11-BCL-2 F104L cells were cultured in RPM11640 supplemented with 1 ug/mL puromycin, 100 U/mL Penicillin-Streptomycin and 10% FBS.
(§2) To investigate whether a compound is able to inhibit the activity of BCL-2 mutation in cells, a mechanism-based assay using engineered cell lines stably overexpressing BCL-2 mutation ([…] and […]) was developed. In this assay, the inhibition of BCL-2 mutation was reflected by the inhibition of cell proliferation of RS4;11-BCL-2 G101V and RS4;11-BCL-2 F104L cells. Cells were plated into 96-well plates at optimized cell density (RS4;11-BCL-2 G101V: 5000 cells/well; RS4;11-BCL-2 F104L: 5000 cells/well). Plates were incubated at 37° C., with 5% CO2 for 4 h. Compounds were serially diluted to the final-concentrations of 10000, 3333.3, 1111.1, 370.4, 123.5, 41.2, 13.7, 4.6 and 1.4 nM and added to the plates. Plates were incubated at 37° C., with 5% CO2 for 168 h. 20 μl MTS was added into each well and the plates were incubated at 37° C., with 5% CO2 exactly for 2 h. The absorbance was measured by a microplate reader at 490 nm. IC50 values were calculated using GraphPad Prism 5.0 software.

Test [3] has as its system RS4;11-BCL-2 F104L cells. The test can be described thus: Cell proliferation assay, engineered RS4;11 cells stably overexpressing BCL-2 F104L (MTS, 168 h). Particulars: Homo sapiens, read-out: RS4, 11 BCL2-F104L. The protocol: as §1, §2

Turning to `CC(C)c1ccccc1[C@@H]1CCCN1C1CC2(CCN(c3ccc(C(=O)NS(=O)(=O)c4cc5c(c([N+](=O)[O-])c4)N[C@@H]([C@H]4CC[C@](C)(O)CC4)CO5)c(Oc4cc5cc[nH]c5nc4OCCN4CCOCC4)c3)CC2)C1` (single isomer, unassigned) [Example D-63, N-(((S)-3-((1r,4S)-4-hydroxy-4-methylcyclohexyl)-5-nitro-3,4-dihydro-2H-benzo[b][1,4]oxazin-7-yl)sulfonyl)-4-(2-((R or S)-2-(2-isopropylphenyl)pyrrolidin-1-yl)-7-azaspiro[3.5]nonan-7-yl)-2-((6-(2-morpholinoethoxy)-1H-pyrrolo[2,3-b]pyridin-5-yl)oxy) benzamide], the IC50 in test [1] and in test [2] was 1 nM each time.

Consider `CC(C)c1ccccc1[C@@H]1CCCN1C1CC2(CCN(c3ccc(C(=O)NS(=O)(=O)c4cc5c(c([N+](=O)[O-])c4)N[C@@H]([C@H]4CC[C@](C)(O)CC4)CO5)c(Oc4cc5cc[nH]c5nc4OC4CN(C)C4)c3)CC2)C1` (single isomer, unassigned) [Example D-201, N-(((S)-3-((1r,4S)-4-hydroxy-4-methylcyclohexyl)-5-nitro-3,4-dihydro-2H-benzo[b][1,4]oxazin-7-yl)sulfonyl)-4-(2-((R or S)-2-(2-isopropylphenyl)pyrrolidin-1-yl)-7-azaspiro[3.5]nonan-7-yl)-2-((6-((1-methylazetidin-3-yl)oxy)-1H-pyrrolo[2,3-b]pyridin-5-yl)oxy)benzamide], for which the IC50 in test [1] and in test [2] was 1 nM in each case.

With `COCCOc1nc2[nH]ccc2cc1Oc1cc(N2CCC3(CC2)CN([C@H]2CCC[C@H]2c2ccccc2C(C)C)C3)ccc1C(=O)NS(=O)(=O)c1cc2c(c([N+](=O)[O-])c1)N[C@@H]([C@H]1CC[C@](C)(O)CC1)CO2` (single isomer, unassigned) [Example D-75b, N-(((S)-3-((1r,4S)-4-hydroxy-4-methylcyclohexyl)-5-nitro-3,4-dihydro-2H-benzo[b][1,4]oxazin-7-yl)sulfonyl)-4-(2-((1S,2S or 1R,2R)-2-(2-isopropylphenyl)cyclopentyl)-2,7-diazaspiro[3.5]nonan-7-yl)-2-((6-(2-methoxyethoxy)-1H-pyrrolo[2,3-b]pyridin-5-yl)oxy) benzamide], the values for the IC50 in test [1] and in test [2] were 1 nM and 16 nM, respectively.

For the molecule `Cc1nc2[nH]cc(F)c2cc1Oc1cc(N2CCC3(CC2)CC(N2CCC[C@H]2c2ccccc2C(C)C)C3)ccc1C(=O)NS(=O)(=O)c1cc2c(c([N+](=O)[O-])c1)N[C@@H]([C@H]1CC[C@](C)(O)CC1)CO2` (single isomer, unassigned) [Example D-244, 2-((3-fluoro-6-methyl-1H-pyrrolo [2,3-b]pyridin-5-yl)oxy)-N-(((S)-3-((1r,4S)-4-hydroxy-4-methylcyclohexyl)-5-nitro-3,4-dihydro-2H-benzo[b][1,4]oxazin-7-yl)sulfonyl)-4-(2-((R or S)-2-(2-isopropylphenyl)pyrrolidin-1-yl)-7-azaspiro[3.5]nonan-7-yl)benzamide], the IC50 in test [3] and in test [1] was 1 nM throughout.

For the molecule `COc1nc2[nH]cc(F)c2cc1Oc1cc(N2CCC3(CC2)CN([C@H]2CCC[C@H]2c2ccccc2C(C)C)C3)ccc1C(=O)NS(=O)(=O)c1ccc(NC[C@H]2CC[C@](C)(O)CC2)c([N+](=O)[O-])c1` (single isomer, unassigned) [Example D-109, 2-((3-fluoro-6-methoxy-1H-pyrrolo [2,3-b]pyridin-5-yl)oxy)-N-((4-((((1r,4r)-4-hydroxy-4-methylcyclohexyl)methyl)amino)-3-nitrophenyl)sulfonyl)-4-(2-((1S,2S or 1R,2R)-2-(2-isopropylphenyl)cyclopentyl)-2,7-diazaspiro[3.5]nonan-7-yl)benzamide], the IC50 in test [3] was found to be 8 nM; in test [1] it was 1 nM.

Regarding `CC(C)c1ccccc1[C@@H]1CCC[C@@H]1N1CC2(CCN(c3ccc(C(=O)NS(=O)(=O)c4cc5c(c([N+](=O)[O-])c4)N[C@@H]([C@H]4CC[C@](C)(O)CC4)CO5)c(Oc4cc5cc[nH]c5nc4F)c3)CC2)C1` (single isomer, unassigned) [Example D-117, 2-((6-fluoro-1H-pyrrolo[2,3-b]pyridin-5-yl)oxy)-N-(((S)-3-((1r,4S)-4-hydroxy-4-methylcyclohexyl)-5-nitro-3,4-dihydro-2H-benzo[b] [1,4]oxazin-7-yl)sulfonyl)-4-(2-((1S,2S or 1R,2R)-2-(2-isopropylphenyl)cyclopentyl)-2,7-diazaspiro[3.5]nonan-7-yl)benzamide], the IC50 in test [3] and in test [1] was 1 nM each time.

As for `COc1nc2[nH]ccc2cc1Oc1cc(N2CCC3(CC2)CC(N2CCC[C@H]2c2ccccc2C(C)C)C3)ccc1C(=O)NS(=O)(=O)c1cc2c(c([N+](=O)[O-])c1)N[C@@H]([C@H]1CC[C@](C)(O)CC1)CO2` (single isomer, unassigned) [Example D-10, N-(((S)-3-((1r,4S)-4-hydroxy-4-methylcyclohexyl)-5-nitro-3,4-dihydro-2H-benzo[b][1,4]oxazin-7-yl)sulfonyl)-4-(2-((R or S)-2-(2-isopropylphenyl)pyrrolidin-1-yl)-7-azaspiro[3.5]nonan-7-yl)-2-((6-methoxy-1H-pyrrolo [2,3-b]pyridin-5-yl)oxy)benzamide], the IC50 stood at 34 nM in test [3] and 1 nM in test [1].

With `Cc1nc2[nH]cc(F)c2cc1Oc1cc(N2CCC3(CC2)CN([C@H]2CCC[C@H]2c2ccccc2C(C)C)C3)ccc1C(=O)NS(=O)(=O)c1cc2c(c([N+](=O)[O-])c1)N[C@@H]([C@H]1CC[C@](C)(O)CC1)CO2` (single isomer, unassigned) [Example D-240, 2-((3-fluoro-6-methyl-1H-pyrrolo [2,3-b]pyridin-5-yl)oxy)-N-(((S)-3-((1r,4S)-4-hydroxy-4-methylcyclohexyl)-5-nitro-3,4-dihydro-2H-benzo[b][1,4]oxazin-7-yl)sulfonyl)-4-(2-((1S,2S or 1R,2R)-2-(2-isopropylphenyl)cyclopentyl)-2,7-diazaspiro[3.5]nonan-7-yl)benzamide], the IC50 in test [3] came to 10 nM; in test [1] it was 1 nM.

As to `Cc1nc2[nH]cc(F)c2cc1Oc1cc(N2CCC3(CC2)CN([C@H]2CCC[C@H]2c2ccccc2C(C)C)C3)ccc1C(=O)NS(=O)(=O)c1ccc(NC[C@H]2CC[C@](C)(O)CC2)c([N+](=O)[O-])c1` (single isomer, unassigned) [Example D-234, 2-((3-fluoro-6-methyl-1H-pyrrolo [2,3-b]pyridin-5-yl)oxy)-N-((4-((((1r,4r)-4-hydroxy-4-methylcyclohexyl)methyl)amino)-3-nitrophenyl)sulfonyl)-4-(2-((1S,2S or 1R,2R)-2-(2-isopropylphenyl)cyclopentyl)-2,7-diazaspiro[3.5]nonan-7-yl)benzamide], the IC50 came to 8 nM in test [3] and 1 nM in test [1].

For the molecule `COc1nc2[nH]cc(F)c2cc1Oc1cc(N2CCC3(CC2)CC(N2CCC[C@H]2c2ccccc2C(C)C)C3)ccc1C(=O)NS(=O)(=O)c1cc2c(c([N+](=O)[O-])c1)N[C@@H]([C@H]1CC[C@](C)(O)CC1)CO2` (single isomer, unassigned) [Example D-83, 2-((3-fluoro-6-methoxy-1H-pyrrolo [2,3-b]pyridin-5-yl)oxy)-N-(((S)-3-((1r,4S)-4-hydroxy-4-methylcyclohexyl)-5-nitro-3,4-dihydro-2H-benzo[b][1,4]oxazin-7-yl)sulfonyl)-4-(2-((R or S)-2-(2-isopropylphenyl)pyrrolidin-1-yl)-7-azaspiro[3.5]nonan-7-yl)benzamide], the IC50 came to 8 nM in test [3] and 1 nM in test [1].

Consider `Cc1nc2[nH]cc(F)c2cc1Oc1cc(N2CCC3(CC2)CN([C@H]2CCC[C@H]2c2ccccc2C(C)C)C3)ccc1C(=O)NS(=O)(=O)c1cnc(NC[C@H]2CC[C@](C)(O)CC2)c([N+](=O)[O-])c1` (single isomer, unassigned) [Example A-156, 2-((3-fluoro-6-methyl-1H-pyrrolo[2,3-b]pyridin-5-yl)oxy)-N-((6-((((1r,4r)-4-hydroxy-4-methylcyclohexyl)methyl)amino)-5-nitropyridin-3-yl)sulfonyl)-4-(2-((1S,2S or 1R,2R)-2-(2-isopropylphenyl)cyclo-pentyl)-2,7-diazaspiro[3.5]nonan-7-yl) benzamide], for which the IC50 in test [3] is 16 nM; in test [1] it was 1 nM.
